Source: patent US6747050B1, “Isoxazoline derivative and a process for the preparation thereof” (LG Chem Investment Ltd., priority 1999, dated 2004)

Assays:
[1] = system: IL-1β production in human peripheral lymphocytes; assay: IL-1β production in LPS-stimulated human peripheral lymphocytes (intracellular Caspase-1 inhibition); assay type: cell-based; settings: Lymphocyte, 10 ng/ml LPS, 12 hours, read-out: CIC50 (IL-1β production)
Description: Inhibitory activity for Caspase-1 was determined by screening the effects of the compounds on the IL-1β production in the periphery lymphocytes stimulated with LPS. Briefly, 500,000 cells/ml of human peripheral lymphocytes were treated with the test compounds at various concentrations for 2 hours and then with 10 ng/ml of LPS. After incubating the cells for 12 hours, the supernatant samples from the media were analysed by immunoantibody analysis (Amersham) in which 100 ng/well of human IL-1β antibody is coated (Range: CIC50: 0.1˜10 μM).

[2] = system: Recombinant human caspase-1, -2, -3, -4, -6, -7, -8 and -9; assay: Inhibition of caspase activity in cell free system (chromogenic pNA substrates); assay type: biochemical; settings: 100 μM compound
Description: The pharmacological efficacy of the compound according to the present invention was evaluated by the following experiments. Con A was purchased from Boehringer Mannheim GmbH (Mannheim, Germany). Peptide-based substrates of caspases (Ac-YVAD-pNA for caspase-1, Ac-VDVAD for caspase-2, Ac-DEVD-pNA for caspase-3, 7, 8, and 9, Ac-LEVD-pNA for caspase-4, and Ac-VEID-pNA for caspase-6) and peptide-based caspase inhibitors (Ac-DEVD-fmk, z-VAD-CHO) were purchased from Alexis Co. (San Diego, Calif.). Ac-DEVD-CHO and z-DEVD-cmk were purchased from Bachem; Anti Fas antibody was purchased from Oncor (Cat#A8050); WI38 cell was available from ATCC; IFN-gamma was purchased from LG Pharmaceuticals (Korea). All cell culture-media and supplements were purchased from Gibco BRL (Tsuen Wan, Hong Kong) unless mentioned otherwise. […]
Caspase activity was tested by mewing proteolytic cleavage of peptide-based chromogenic substrate by each enzyme. […] Aliquots of the enzyme (2 μl containing catalytic activity of 0.2 absorbance at 405 nm/h) were mixed with 150 μl of 200 μM chromogenic substrate in the presence or absence of 100 μM compound 33 m, 96-well plates. […] The absorbance of enzymatically released pNA was measured discontinuously at 405 nm in a microplate reader for 1 hr. The caspase activity was calculated from initial velocity (meant±SE)(n=4, in which n represents the number of repeated experiment).

[3] = system: Con A-induced hepatitis in Balb/c mice; assay: Con A-induced acute hepatitis mice: plasma aminotransferase activity; assay type: in vivo
Description: Female 6-week-old Balb/c mice (Charles River Laboratory, Osaka, Japan) were kept at 22° C. and 55% relative humidity in a 12-h day/night rhythm with free access to food and water. Con A was dissolved in pyrogen-free saline to a concentration of 2.5 mg/ml and was injected via the tail vein in an amount of 20 mg/kg based on Con A. The animals were i.p. injected twice with compound 33 dissolved into a vehicle which consists of olive oil and 10% DMSO, or a vehicle alone, at 1 hr before and 4 h after Con A injection Animals were sacrificed by cervical dislocation at 24 hrs after Con A injection to obtain liver and blood samples.
Blood samples obtained at step 1 were collected at 24 h after Con A injection Plasma AST and ALT activity were measured using Autokit (Youngdong Pharmaceutical Co., Seoul, Korea) following manufacturer's instruction.

[4] = system: hepatocytes in ConA-treated mouse liver; assay: Con A-treated mouse liver: histologic examination and TUNEL detection of apoptosis; assay type: in vivo, mice; settings: 4, 20, 100 mg/kg
Description: The present inventors estimated the prevalence of apoptotic cells in the mouse liver to certify the apoptosis-blocking effect of the compound of the present invention specifically in hepatocytes. Mice were treated ConA in the presence or absence of various dosages of compound 33 [A and G: ConA and vehicle treatment, B and H: ConA and compound 33 4 mg/kg treatment, C and I: ConA and compound 33 20 mg/kg treatment, D and J: ConA and compound 33 100 mg/kg treatment] to prepare frozen liver sections. Also, mice were treated with PBS and vehicle (E and K), or PBS and compound 33 100 mg/kg (F and L) to prepare frozen liver sections. Freshly excised mouse liver was immediately immersed in 25% sucrose solution at 4° C. for overnight, then frozen in liquid nitrogen, and cryosectioned into 4 μm.
For histological examination, liver sections were fixed in 1% buffered paraformaldehyde and stained with hematoxilin & eosin (FIGS. 6A to F). To detect apoptotic cells in liver, frozen liver was stained using an ApopTag in situ apoptosis peroxidase detection kit (terminal deoxynucleotidyl transferase-mediated dUTP nick end labeling: TUNEL assay) (Oncor, Gaithersburg, Md.) and DAKO liquid DAB (DAKO, Carpinteria, Calif.)(FIGS. 6G to L). Staining was conducted according to manufacturer's instruction After completion of staining, the samples were observed under an optical microscope. […]

PARP cleavage = assay: Western blotting of PARP cleavage in liver lysate of Con A-treated mice; assay type: in vivo; settings: various doses
Description: In this experiment, the cleavage of PARP was identified by the appearance on Western blot analysis of an 85 kda-cleavage product in hepatic cell lysate obtained from mice treated with Con A and various doses of the compound of formula (I).
Freshly harvested livers treated with Con A or PBS together with various doses of compound 33 were rinsed in cold PBS and homogenized into three volumes per weight of cold PBS containing 1% Nonidet P-40, 0.1% SDS, 1 mM PMSF, and protease inhibitor cocktail tablet Complete (Boehnger Mannheim, used according to manufacturer's instruction). The homogenates were incubated on ice for 30 min. Samples were then centrifuged at 16,000×g for 30 min at 4° C. Supernatants were transferred to fresh tubes and centrifuged for additional 30 min. Harvested lysates were precleared by incubating with protein G-sepharose (Pharmacia, Uppsala, Sweden) at 4° C. for overnight, gently shaking. Supernatants were harvested by centrifugation at 1000×g for 30 sec. at 4° C. and separated on 7% SDS-polyacrylamide gel and transferred to nitrocellulose membrane. Blots were blocked for 1 hr at room temperature in PBS containing 5% skimmed milk and 0.1% Tween 20 under gentle shaking. Membranes were then incubated overnight with 1:1000 diluted monoclonal anti-PARP antibody (Pharmingen) under gentle shaking. […]

[5] = system: caspase-3-like activity (Ac-DEVD-pNA); assay: Caspase-3-like activity in TNFα/ActD-treated primary rat hepatocytes; assay type: cell-based; settings: 100 μM, 8 hrs
Description: (§1) Primary rat hepatocytes were isolated and purified from male Sprague-Dawley rats using a collagenase digestion method. The hepatocytes were purified over 30% Percoll gradient by centrifugation at 1,000×g for 10 min. at 4° C. […] The cells were plated on collagen-coated tissue culture plates at a density of 2×10^5 cells/well in 12-well plates for cell viability analysis or 5×10^6 cells/100 mm dish for enzyme assays. After 18 hrs preculture, the cells were treated with 2,000 units/ml TNFα and 0.2 μg/ml Actinomycin (ActD). Caspase activity and cell viability was determined by colorimetry using a caspase substrate Ac-DEVD-pNA and crystal violet staining method at 8 hrs and 12 hrs, respectively.

primary rat hepatocytes = assay: Cell viability of TNFα/ActD-treated primary rat hepatocytes (crystal violet); assay type: cell-based; settings: added at different time points
Description: as §1

## CC(C)[C@H](NC(=O)CCc1ccccc1)C1=NOC(Cc2ccccc2)(C(=O)N[C@@H](CC(=O)O)C(=O)COC(=O)c2c(Cl)cccc2Cl)C1 (mixture of isomers) [Compound 32]
[1]
  IC50: 0.1 to 10 µM

## CC(C)[C@H](NC(=O)c1cccc2ccccc12)C1=NOC(Cc2ccccc2)(C(=O)N[C@@H](CC(=O)O)C(=O)COC(=O)c2c(Cl)cccc2Cl)C1 (stereo partly drawn) [Compound 33, (3S)-3-{3-[2-Methyl-(1S)-1-(1-naphthalenecarbonylamino)-propyl]-5-phenylmethyl-4,5-dihydro-isoxazole-5-carbonylamino}-4-keto-5-(2,6-dichlorobenzoyloxy)-pentanoic Acid]
[2]
  inhibition of recombinant human caspase activity (FIG. 1): almost completely inhibited all tested caspase activity, only except for caspase 2
[3]; 4 mg/kg, second experiment (AST: p=0.2972, ALT: p=0.1378)
  AST and ALT difference to Con A/vehicle group: did not reached at statistically significant level
[3]; 20 mg/kg, second experiment (AST: p=0.0174, ALT: p=0.0011)
  AST and ALT activities compared with ConA/vehicle group: definitely reduced
[3]; first experiment, not statistically significant (p=0.1033)
  AST activity by the compound itself (no Con A): slightly increased
[3]; i.p. twice, 1 hr before and 4 h after Con A, blood at 24 h
  serum AST and ALT activity elevated by ConA (FIG. 4A, B): suppressed the elevated enzyme activities in a dose-dependent manner
[4]
  apoptotic lesions in liver: reduced dose-dependently
  cellular histology of liver: gradually recovered
PARP cleavage
  PARP cleavage (85 kDa-cleavage product) caused by Con A (FIG. 7): gradually reduced

## Z-VAD-fmk
[5]
  caspase-3-like activity increased by TNFα/ActD (FIG. 15A): not different
Primary rat hepatocytes
  cell viability with delayed addition, comparison with compound 33MP-Na: No different results
